Test: Antagonist activity at human P2Y12 receptor assessed as inhibition of ADP-induced platelet-rich plasma aggregation by turbidimetric method

With `CCCCCOC(=O)N1CCN(C(=O)[C@H](CCC(=O)O)NC(=O)c2cccc(-c3ccccc3)n2)CC1` [(S)-5-oxo-5-(4-(pentyloxycarbonyl)piperazin-1-yl)-4-(6-phenylpicolinamido)pentanoic acid] as the compound, how does the IC50 read?
The IC50 was 15 µM.

For `CCCCCOC(=O)N1CCN(C(=O)[C@H](CCC(=O)O)NC(=O)c2cc(N3CCC(CN)CC3)cc(-c3ccccc3)n2)CC1` [(4S)4-[({4-[4-(Aminomethyl)piperidin-1-yl]-6-phenylpyridin-2-yl}carbonyl)amino]-5-oxo-5-{4-[(pentyloxy)carbonyl]piperazin-1-yl}pentanoic Acid], which IC50 is on record?
Its IC50 is 0.77 µM.

Which IC50 does the source give for `CCOC(=O)N1CCN(C(=O)[C@H](CCC(=O)O)NC(=O)c2cc(OCCCN)cc(-c3ccccc3)n2)CC1` [(S)-4-(4-(3-aminopropoxy)-6-phenylpicolinamido)-5-(4-(ethoxycarbonyl)piperazin-1-yl)-5-oxopentanoic acid] here?
The IC50 was 3.8 µM.

With `COCCOc1cc(C(=O)N[C@@H](CCC(=O)O)C(=O)N2CCN(C(=O)OC(C)C)CC2)nc(-c2ccccc2)c1` [(S)-5-(4-(isopropoxycarbonyl)piperazin-1-yl)-4-(4-(2-methoxyethoxy)-6-phenylpicolinamido)-5-oxopentanoic acid] as the compound, how does the IC50 read?
Its IC50 is 20.1 µM.

With `CCOC(=O)N1CCN(C(=O)[C@H](CCC(=O)O)NC(=O)c2cc(OCc3ccccc3)cc(-c3ccccc3)n2)CC1` [(S)-4-(4-(benzyloxy)-6-phenylpicolinamido)-5-(4-(ethoxycarbonyl)piperazin-1-yl)-5-oxopentanoic acid] as the compound, how does the IC50 read?
Its IC50 is 31 µM.

For `CCOC(=O)N1CCN(C(=O)[C@H](CCC(=O)O)NC(=O)c2cc(N3CCC(N4CCCC4)CC3)cc(-c3ccccc3)n2)CC1` [(4S)5-[4-(Ethoxycarbonyl)piperazin-1-yl]-5-oxo-4-({[6-phenyl-4-(4-pyrrolidin-1-ylpiperidin-1-yl)pyridin-2-yl]carbonyl}amino)pentanoic Acid], which IC50 is on record?
Its IC50 is 2 µM.

With `CCOC(=O)N1CCN(C(=O)[C@H](CCC(=O)O)NC(=O)c2cc(OC)cc(-c3ccccc3)n2)CC1` [(S)-5-(4-(ethoxycarbonyl)piperazin-1-yl)-4-(4-methoxy-6-phenylpicolinamido)-5-oxopentanoic acid] as the compound, how does the IC50 read?
The IC50 was 39 µM.

Which IC50 does the source give for `CCOC(=O)N1CCN(C(=O)[C@H](CCC(=O)O)NC(=O)c2cc(N3CCC(CN)CC3)cc(-c3ccccc3)n2)CC1` [(S)-4-(4-(4-(aminomethyl)piperidin-1-yl)-6-phenylpicolinamido)-5-(4-(ethoxycarbonyl)piperazin-1-yl)-5-oxopentanoic acid] here?
Its IC50 is 3.3 µM.

With `CCCCOC(=O)N1CCN(C(=O)[C@H](CCC(=O)O)NC(=O)c2cccc(-c3ccccc3)n2)CC1` [(S)-5-(4-(butoxycarbonyl)piperazin-1-yl)-5-oxo-4-(6-phenylpicolinamido)pentanoic acid] as the compound, how does the IC50 read?
The IC50 was 28 µM.

Which IC50 does the source give for `CCCCCOC(=O)N1CCN(C(=O)[C@H](CCC(=O)O)NC(=O)c2cc(N3CCC(COC)CC3)cc(-c3ccccc3)n2)CC1` [(4S)4-[({4-[4-(Methoxymethyl)piperidin-1-yl]-6-phenylpyridin-2-yl}carbonyl)amino]-5-oxo-5-{4-[(pentyloxy)carbonyl]piperazin-1-yl}pentanoic Acid] here?
Its IC50 is 3.9 µM.

For `CCCCOC(=O)N1CCN(C(=O)[C@H](CCC(=O)O)NC(=O)c2cc(OCCO)cc(-c3ccccc3)n2)CC1` [(S)-5-(4-(butoxycarbonyl)piperazin-1-yl)-4-(4-(2-hydroxyethoxy)-6-phenylpicolinamido)-5-oxopentanoic acid], which IC50 is on record?
The IC50 was 7.8 µM.

With `CCCCCCOC(=O)N1CCN(C(=O)[C@H](CCC(=O)O)NC(=O)c2cc(N3CCC(O)CC3)cc(-c3ccccc3)n2)CC1` [(S)-5-(4-(hexyloxycarbonyl)piperazin-1-yl)-4-(4-(4-hydroxypiperidin-1-yl)-6-phenylpicolinamido)-5-oxopentanoic acid] as the compound, how does the IC50 read?
The IC50 was 6.4 µM.

Which IC50 does the source give for `CCCCOC(=O)N1CCN(C(=O)[C@H](CCC(=O)O)NC(=O)c2cc(OCCOC)cc(-c3ccccc3)n2)CC1` [(4S)5-[4-(Butoxycarbonyl)iperazin-1-yl]-4-({[4-(2-methoxyethoxy)6-phenylpyridin-2-yl]carbonyl}amino)5-oxopentanoicAcid] here?
The IC50 was 4.4 µM.

With `CCOC(=O)N1CCN(C(=O)[C@H](CCC(=O)O)NC(=O)c2cc(NCCOC)cc(-c3ccccc3)n2)CC1` [(S)-5-(4-(ethoxycarbonyl)piperazin-1-yl)-4-(4-(2-methoxyethylamino)-6-phenylpicolinamido)-5-oxopentanoic acid] as the compound, how does the IC50 read?
Its IC50 is 14 µM.

For `CCCCOc1cc(C(=O)N[C@@H](CCC(=O)O)C(=O)N2CCN(C(=O)OCC)CC2)nc(-c2ccccc2)c1` [(4S)4-{[(4-Butoxy-6-phenylpyridin-2-yl)carbonyl]amino}-5-[4-(ethoxycarbonyl)iperazin-1-yl]-5-oxopentanoic Acid], which IC50 is on record?
Its IC50 is 33.9 µM.

For `CCCCOC(=O)N1CCN(C(=O)[C@H](CCC(=O)O)NC(=O)c2cc(OCCCC)cc(-c3ccccc3)n2)CC1` [(4S)5-[4-(Butoxycarbonyl)iperazin-1-yl]-4-{[(4-butoxy-6-phenylpyridin-2-yl)carbonyl]amino}-5-oxopentanoic Acid], which IC50 is on record?
The IC50 was 26.9 µM.

With `CCOC(=O)N1CCN(C(=O)[C@H](CCC(=O)O)NC(=O)c2cc(N(CC)CC)cc(-c3ccccc3)n2)CC1` [(S)-4-(4-(diethylamino)-6-phenylpicolinamido)-5-(4-(ethoxycarbonyl)piperazin-1-yl)-5-oxopentanoic acid] as the compound, how does the IC50 read?
The IC50 was over 100 µM.

With `CCOC(=O)N1CCN(C(=O)[C@H](CCC(=O)O)NC(=O)c2cc(NCCO)cc(-c3ccccc3)n2)CC1` [(S)-5-(4-(ethoxycarbonyl)piperazin-1-yl)-4-(4-(2-hydroxyethylamino)-6-phenylpicolinamido)-5-oxopentanoic acid] as the compound, how does the IC50 read?
The IC50 was 8.1 µM.

For `Cc1cccc(N2CCN(C(=O)[C@H](CCC(=O)O)NC(=O)c3cc(-c4ccccc4)cc(-c4ccccc4)n3)CC2)c1` [(S)-4-(4,6-diphenylpicolinamido)-5-oxo-5-(4-m-tolylpiperazin-1-yl)pentanoic acid], which IC50 is on record?
Its IC50 is over 100 µM.

Which IC50 does the source give for `CC(C)OC(=O)N1CCN(C(=O)[C@H](CCC(=O)O)NC(=O)c2cc(OCCO)cc(-c3ccccc3)n2)CC1` [(S)-4-(4-(2-hydroxyethoxy)-6-phenylpicolinamido)-5-(4-(isopropoxycarbonyl)piperazin-1-yl)-5-oxopentanoic acid] here?
The IC50 was 25.6 µM.

With `CCCCCCOC(=O)N1CCN(C(=O)[C@H](CCC(=O)O)NC(=O)c2cc(N(C)CCS(C)(=O)=O)cc(-c3ccccc3)n2)CC1` [(S)-4-(4-(methyl(2-(methylsulfonyl)ethyl)amino)-6-phenylpicolinamido)-5-oxo-5-(4-(hexyloxycarbonyl)piperazin-1-yl)pentanoic acid] as the compound, how does the IC50 read?
The IC50 was 17.7 µM.

For `CCOC(=O)N1CCN(C(=O)[C@H](CCC(=O)O)NC(=O)c2cc(OCCCO)cc(-c3ccccc3)n2)CC1` [(4S)5-[4-(Ethoxycarbonyl)iperazin-1-yl]-4-({[4-(3-hydroxypropoxy)6-phenylpyridin-2-yl]carbonyl}amino)5-oxopentanoic Acid], which IC50 is on record?
The IC50 was 9 µM.

For `CCOC(=O)N1CCN(C(=O)[C@H](CCC(=O)O)NC(=O)c2cc(OCCOC)cc(-c3ccccc3)n2)CC1` [(S)-5-(4-(ethoxycarbonyl)piperazin-1-yl)-4-(4-(2-methoxyethoxy)-6-phenylpicolinamido)-5-oxopentanoic acid], which IC50 is on record?
The IC50 was 5.8 µM.

With `Cc1cccc(N2CCN(C(=O)[C@H](CCC(=O)O)NC(=O)c3cccc(-c4ccccc4)n3)CC2)c1` [(4S)5-[4-(3-Methylphenyl)piperazin-1-yl]-5-oxo-4-{[(6-phenylpyridin-2-yl)carbonyl]amino}pentanoicAcid] as the compound, how does the IC50 read?
The IC50 was over 100 µM.

Which IC50 does the source give for `C=CCOC(=O)N1CCN(C(=O)[C@H](CCC(=O)O)NC(=O)c2cc(OCCCC)cc(-c3ccccc3)n2)CC1` [(S)-5-(4-(allyloxycarbonyl)piperazin-1-yl)-4-(4-butoxy-6-phenylpicolinamido)-5-oxopentanoic acid] here?
Its IC50 is 61.7 µM.

For `CCCOC(=O)N1CCN(C(=O)[C@H](CCC(=O)O)NC(=O)c2cccc(-c3ccccc3)n2)CC1` [(4S)5-Oxo-4-{[(6-phenylpyridin-2-yl)carbonyl]amino}-5-[4-(propoxycarbonyl)iperazin-1-yl]pentanoic Acid], which IC50 is on record?
The IC50 was 62 µM.

For `CCOC(=O)N1CCN(C(=O)[C@H](CCC(=O)O)NC(=O)c2cc(NC)cc(-c3ccccc3)n2)CC1` [(4S)5-[4-(Ethoxycarbonyl)piperazin-1-yl]-4-({[4-(methylamino)6-phenylpyridin-2-yl]carbonyl}amino)5-oxopentanoic Acid], which IC50 is on record?
Its IC50 is 45 µM.

Which IC50 does the source give for `CCOC(=O)N1CCN(C(=O)[C@H](CCC(=O)O)NC(=O)c2cc(OC3CCNCC3)cc(-c3ccccc3)n2)CC1` [(S)-5-(4-(ethoxycarbonyl)piperazin-1-yl)-5-oxo-4-(6-phenyl-4-(piperidin-4-yloxy)picolinamido)pentanoic acid] here?
Its IC50 is 1.9 µM.

With `CCCCCOC(=O)N1CCN(C(=O)[C@H](CCC(=O)O)NC(=O)c2cc(OCCOC)cc(-c3ccccc3)n2)CC1` [(4S)4-({[4-(2-Methoxyethoxy)6-phenylpyridin-2-yl]carbonyl}amino)5-oxo-5-{4-[(pentyloxy)carbonyl]piperazin-1-yl}pentanoic Acid] as the compound, how does the IC50 read?
The IC50 was 4.3 µM.

With `CCOC(=O)N1CCN(C(=O)[C@H](CCC(=O)O)NC(=O)c2cc(OCCO)cc(-c3ccccc3)n2)CC1` [(4S)5-[4-(Ethoxycarbonyl)iperazin-1-yl]-4-({[4-(2-hydroxyethoxy)6-phenylpyridin-2-yl]carbonyl}amino)5-oxopentanoicAcid] as the compound, how does the IC50 read?
Its IC50 is 7.6 µM.

For `CCCCOC(=O)N1CCN(C(=O)[C@H](CCC(=O)O)NC(=O)c2cc(OC3CCNCC3)cc(-c3ccccc3)n2)CC1` [(S)-5-(4-(butoxycarbonyl)piperazin-1-yl)-5-oxo-4-(6-phenyl-4-(piperidin-4-yloxy)picolinamido)pentanoic acid], which IC50 is on record?
Its IC50 is 1.1 µM.

For `CCOC(=O)N1CCN(C(=O)[C@H](CCC(=O)O)NC(=O)c2cc(OCC3CCNCC3)cc(-c3ccccc3)n2)CC1` [(S)-5-(4-(ethoxycarbonyl)piperazin-1-yl)-5-oxo-4-(6-phenyl-4-(piperidin-4-ylmethoxy)picolinamido)pentanoic acid], which IC50 is on record?
The IC50 was 4 µM.

For `CCOC(=O)N1CCN(C(=O)[C@H](CCC(=O)O)NC(=O)c2cc(N3CCC(COC)CC3)cc(-c3ccccc3)n2)CC1` [(4S)5-[4-(Ethoxycarbonyl)piperazin-1-yl]-4-[({4-[4-(methoxymethyl)piperidin-1-yl]-6-phenylpyridin-2-yl}carbonyl)amino]-5-oxopentanoic Acid], which IC50 is on record?
Its IC50 is 9.9 µM.

Source: BindingDB's records for doi:10.1016/j.bmcl.2009.06.075 (Pfizer, 2009)
